According to patent US20230141603A1, “BENZODIAZEPINE DERIVATIVES AS GABA A GAMMA1 PAM” (Hoffmann-La Roche Inc., priority 2021, published 2023):

Target: T1, h-GABAA α1β3γ2 (Homo sapiens, UniProt P14867+P18507)
T1 construct: expressed in transfected cells; host or cells: HEK293F cells, membranes
Test: Radioligand binding assay, [3H]Flumazenil competition, HEK293F membranes
Details: for γ2/γ1 Selectivity Ratio: Ki α1β3γ2 (nM)/Ki α2β2γ1 (nM); for LogSel: Log[Ki α1β3γ2 (nM)/Ki α2β2γ1 (nM)]
Summary of the method: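 [3H]Flumazenil competition binding on membranes from HEK293F cells transiently expressing human α1β3γ2 receptors. Incubation to equilibrium for 1 h at 4 °C, then filtration and scintillation counting. Ki is the mean of two determinations.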

| SMILES | Ki | γ2/γ1 Selectivity Ratio (Table 1) | LogSel (Table 1) | LogSel (Table 3) |
| --- | --- | --- | --- | --- |
| Cn1cc(-c2nnc3n2-c2ccc(C(F)(F)F)c(Cl)c2C(c2ncccc2F)=NC3)cn1 [Example 70, 7-chloro-6-(3-fluoro-2-pyridyl)-1-(1-methylpyrazol-4-yl)-8-(trifluoromethyl)-4H-[1,2,4]triazolo[4,3-a][1,4]benzodiazepine] | 5980 nM | 144.5 | 2.16 | – |
| Cc1nnc2n1-c1ccc(Cl)c(Cl)c1C(c1ncccc1F)=NC2 [Example 71, 7,8-dichloro-6-(3-fluoro-2-pyridyl)-1-methyl-4H-[1,2,4]triazolo[4,3-a][1,4]benzodiazepine] | 1080 nM | 28.7 | 1.46 | – |
| Fc1cccnc1C1=NCc2nnc(-c3cccnn3)n2-c2ccc(C(F)(F)F)c(Cl)c21 [Example 72, 7-chloro-6-(3-fluoro-2-pyridyl)-1-pyridazin-3-yl-8-(trifluoromethyl)-4H-[1,2,4]triazolo[4,3-a][1,4]benzodiazepine] | 10300 nM | 342.1 | 2.53 | – |
| Fc1cccnc1C1=NCc2nnc(C3CC3)n2-c2ccc(Br)c(Cl)c21 [Example 77, 8-bromo-7-chloro-1-cyclopropyl-6-(3-fluoro-2-pyridyl)-4H-[1,2,4]triazolo[4,3-a][1,4]benzodiazepine] | 716 nM | 36.6 | 1.56 | – |
| Cc1nnc2n1-c1ccc(C(F)(F)F)c(Cl)c1C(c1ncccc1F)=NC2 [Example 78, 7-chloro-6-(3-fluoro-2-pyridyl)-1-methyl-8-(trifluoromethyl)-4H-[1,2,4]triazolo[4,3-a][1,4]benzodiazepine] | 4440 nM | 87.4 | 1.94 | – |
| COc1ccc2c(c1Cl)C(c1c(F)cccc1F)=NCc1nnc(C3CC3)n1-2 [Example 79, 7-chloro-1-cyclopropyl-6-(2,6-difluorophenyl)-8-methoxy-4H-[1,2,4]triazolo[4,3-a][1,4]benzodiazepine] | 914 nM | 17.8 | 1.25 | – |
| COc1nnc2n1-c1ccc(Cl)c(Cl)c1C(c1c(F)cccc1F)=NC2 [Example 90, 7,8-dichloro-6-(2,6-difluorophenyl)-1-methoxy-4H-[1,2,4]triazolo[4,3-a][1,4]benzodiazepine] | 305 nM | 52.8 | 1.72 | – |
| CO[C@H]1C[C@H](c2nnc3n2-c2ccc(Cl)c(Cl)c2C(c2c(F)cccc2F)=NC3)C1 [Example 91, trans-7,8-dichloro-6-(2,6-difluorophenyl)-1-(3-methoxycyclobutyl)-4H-[1,2,4]triazolo[4,3-a][1,4]benzodiazepine] | 1340 nM | 36.8 | 1.57 | – |
| Fc1cccc(F)c1C1=NCc2nnc(-c3cccnn3)n2-c2ccc(Br)c(Cl)c21 [Example 104, 8-bromo-7-chloro-6-(2,6-difluorophenyl)-1-pyridazin-3-yl-4H-[1,2,4]triazolo[4,3-a][1,4]benzodiazepine] | 89.3 nM | 38.1 | 1.58 | – |
| Cc1ncc2n1-c1ccc(Cl)cc1C(c1ccccc1F)=NC2 [Midazolam, reference compound] | 5 nM | – | – | −2.2 |
